In one data set the test system is adenylyl cyclase. Briefly: cAMP generation by direct activation of adenylyl cyclase with forskolin. The class given is biochemical. The following applies: membranes from HEK-GLP-1R cells, 5 min, 30°C, IBMX. As to the method:
Generation of cAMP by cell membranes was determined based on previously published methods, [21]. Membranes were prepared from confluent cell monolayers grown in 80 cm^2 flasks. Cells were washed with 5 ml HBS (154 mM NaCl, 10 mM HEPES, pH 7.4, 37°C), detached using harvesting buffer (154 mM NaCl, 10 mM HEPES, 5.4 mM EDTA, pH 7.4, 37°C) and collected by centrifugation (200 g, 2 min, 4°C). The cell pellet was resuspended in 1 ml of homogenization buffer (10 mM HEPES, 10 mM EDTA, pH 7.4) and sonicated (Sonifier Ultrasonic Cell Disruptor; Branson, CT) at 30% of the maximal amplitude for 3×5 s at ∼30 s intervals before centrifugation (30,000 g, 4°C, 10 min). After removal of the supernatant, pellets were collected in resuspension buffer (10 mM HEPES, 0.1 mM EDTA, pH 7.4), protein concentration adjusted to 1 mg/ml and stored in aliquots at −80°C until assay. Generation of cAMP was determined in 100 µl containing: 10 mM HEPES, 12 mM MgCl2, 60 mM NaCl, 1.2 mM EDTA, 1.2% w/v BSA, 5% DMSO, 480 µM ATP, 2 mM IBMX, 10 µM GTP, 20 µg membrane and ligands as indicated. […]
(§1) The cAMP was extracted from either intact cell or membrane preparations using a method identical to that for extraction of Ins(1,4,5)P3 [22]. Levels of cAMP were then determined by a competitive radioreceptor assay using binding protein purified from bovine adrenal glands and related to cellular protein assessed by Bradford assay.

For data set [1], the system named is GLP-1R. The conditions noted are these: intact GLP-1; ref [16], [18], [30], [40]; cited from earlier work.
A further data set concerns type 2 diabetes. The following applies: exogenous GLP-1; ref [11]; cited from earlier work. An excerpt:
GLP-1 is generated within intestinal L-cells by the a ...

The conditions of data set [2]: in vivo, cited from earlier work. An excerpt: (§2) Such proteolysis is thought to remove biological activity.
In data set [3] the test system is GLP-1R. The following applies: ref [9]; cited from earlier work.
Description: as §2

Data set [4] concerns the target GLP-1 7-36 amide 7-36 (Homo sapiens) (UniProt P01275). The conditions noted are these: cited from earlier work.
Data set [5] deals with T1, human GLP-1R (Homo sapiens, UniProt P43220).
T1 construct: expressed in transfected cells; vector pcDNA5/FRT
T1 sequence (P43220 24-463): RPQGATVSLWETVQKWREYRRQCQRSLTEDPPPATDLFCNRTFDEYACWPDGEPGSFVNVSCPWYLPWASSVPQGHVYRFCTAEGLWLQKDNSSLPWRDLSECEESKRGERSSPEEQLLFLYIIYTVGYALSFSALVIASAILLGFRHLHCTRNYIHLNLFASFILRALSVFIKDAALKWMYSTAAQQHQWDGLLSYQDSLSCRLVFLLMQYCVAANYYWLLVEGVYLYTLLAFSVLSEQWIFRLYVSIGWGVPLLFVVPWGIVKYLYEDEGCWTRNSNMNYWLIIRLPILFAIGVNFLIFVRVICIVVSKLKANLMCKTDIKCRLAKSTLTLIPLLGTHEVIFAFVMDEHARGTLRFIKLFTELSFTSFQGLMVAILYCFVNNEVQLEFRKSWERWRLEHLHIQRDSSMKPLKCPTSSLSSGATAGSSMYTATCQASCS
Briefly: cAMP generation in intact HEK-GLP-1R cells. The following applies: IBMX; for EC50: pEC50 of the GLP-1 9–36 amide response (cAMP), 15 min, mean±s.e.m., n = 4. It is filed as cell-based. As to the method:
(§3) HEK-Flp-In cells with stable recombinant expression of the human GLP-1R (HEK-GLP-1R) were cultured in DMEM with high glucose supplemented with 10% FBS, 100 µg/ml streptomycin and 100 units/ml penicillin sulphate. These cells were originally generated by transfection of HEK-Flp-In cells (Invitrogen: Paisley, U.K.) with pcDNA5/FRT containing the human GLP-1R. […] INS-1E cells were kindly provided by Prof. C.B. Wollheim of the University of Geneva, Switzerland [19]. These cells were used between passages 65–90 and cultured in RPMI media containing 11.1 mM glucose, 5% heat-inactivated FBS, 100 µg/ml streptomycin, 100 units/ml penicillin sulphate, 100 units/ml neomycin, 50 µM β-mercaptoethanol, 10 mM HEPES and 1 mM sodium pyruvate. All cells were cultured at 37°C in a 5% CO2 humidified atmosphere and passaged at confluence.
(§4) Confluent monolayers of HEK-GLP-1R cells cultured in 24-well plates pre-coated with poly-D-lysine (0.1% w/v) where washed twice with 0.5 ml Krebs-HEPES buffer (KHB, composition: 10 mM HEPES; 4.2 mM NaHCO3; 11.7 mM D-glucose; 1.18 mM MgSO4·7H2O; 1.18 mM KH2PO4; 4.69 mM KCl; 118 mM NaCl; 1.3 mM CaCl2·2H2O; pH 7.4) containing 0.1% (w/v) BSA (KHB-BSA) before incubation (10 min, 37°C) in 360 µl KHB-BSA containing 500 µM isobutylmethylxanthine (IBMX). Ligands or vehicle control (40 µl) were added and reactions terminated after the appropriate times by replacement of the aqueous phase with ice-cold 0.5 M trichloroacetic acid. INS-1E cells grown to confluence in 24-well plates were treated similarly with the exception that after washing in KHB, cells were incubated in 200 µl KHB-BSA containing 1.4 mM glucose without IBMX for 2 h followed by challenge with ligands (or vehicle) for 15 min at 37°C in 400 µl KHB-BSA, in the presence of 10 mM glucose and 500 µM IBMX. Reactions were terminated as above.
as §1
(§5) Concentration-response curves were fitted using GraphPad Prism (GraphPad Software Inc., CA) using a standard four parameter logistic equation. All data are representative of n≥3 or are presented as mean+/±s.e.m., where n = 3 unless otherwise stated. Statistical analysis was by oneway ANOVA and where P<0.05, followed by Bonferroni's or Dunnett's multiple range test as indicated. Alternatively analysis was performed by Student's t-test. Where potency estimates are given these are pEC50 values (−log10 of the molar concentration giving 50% of the maximal response).

Data set [6] deals with T1, human GLP-1R. The data set is described as follows: cAMP generation by membranes from HEK-GLP-1R cells. The following applies: read-out: Emax as % of the GLP-1 7–36 amide response, cAMP (membranes); 5 min, 30°C, IBMX. The class given is biochemical. As to the method:
as §1, §5

The target of data set [7] is T2, GLP-1R (native, rat insulinoma cell line INS-1E) (Rattus norvegicus, UniProt P32301).
T2 construct: the rat insulinoma cell line, INS-1E, with native expression of the GLP-1R; endogenous in cells; host or cells: INS-1E rat insulinoma cells (gift of Prof. C.B. Wollheim)
T2 sequence (P32301 22-463): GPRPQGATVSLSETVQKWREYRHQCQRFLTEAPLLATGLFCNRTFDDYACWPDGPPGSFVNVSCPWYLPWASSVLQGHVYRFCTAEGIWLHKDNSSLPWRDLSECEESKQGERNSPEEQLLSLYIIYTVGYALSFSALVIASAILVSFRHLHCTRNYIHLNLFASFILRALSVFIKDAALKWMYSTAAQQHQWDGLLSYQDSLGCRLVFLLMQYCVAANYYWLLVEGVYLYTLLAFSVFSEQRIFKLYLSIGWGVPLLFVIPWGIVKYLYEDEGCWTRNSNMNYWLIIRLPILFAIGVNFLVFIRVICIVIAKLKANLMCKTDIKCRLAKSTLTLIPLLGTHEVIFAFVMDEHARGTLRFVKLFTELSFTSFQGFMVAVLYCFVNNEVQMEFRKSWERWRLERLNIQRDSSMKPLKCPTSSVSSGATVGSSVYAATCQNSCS
Briefly: cAMP generation in INS-1E cells. The class given is cell-based. The conditions noted are these: INS-1E, read-out: Emax as % of that evoked by GLP-1 7–36 amide, cAMP (INS-1E), in the presence of compound 2. As for the experimental part: as §3, §4, §1, §5

The target in data set [8] is T1, human GLP-1R. Briefly: ERK activation (phospho-ERK Western blot) in HEK-GLP-1R cells. The class given is cell-based. The conditions noted are these: GLP-1 9–36 amide (1 µM) + compound 2 (0.1 µM to 1 µM), 5 min; n = 3. As to the method:
as §5

For a further data set, the system named is β2-adrenoceptors. The data set is described as follows: cAMP accumulation via β2-adrenoceptors in HEK-GLP-1R cells. The class given is cell-based. The conditions noted are these: isoproterenol 100 µM, IBMX, 5% DMSO. As to the method:
Ligands or vehicle control (40 µl) were added and reactions terminated after the appropriate times by replacement of the aqueous phase with ice-cold 0.5 M trichloroacetic acid. […] Reactions were terminated as above.
as §1
All data are mean±/+s.e.m., n = 3–4, *** P<0.001 and ** P<0.01 by Bonferroni's multiple range test. For clarity only differences between ‘numerical’ and ‘co-addition’ conditions are shown.

Chain of GLP-1 7-36 amide 7-36 (Homo sapiens) (P01275 7-36): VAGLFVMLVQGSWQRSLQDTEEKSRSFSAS
Chain of GLP-1R (P43220 24-463): as the sequence (P43220 24-463) above

For the compound `C=C[C@@]1(C)CC(=O)[C@]2(O)[C@@]3(C)[C@@H](O)CCC(C)(C)[C@@H]3[C@H](O)[C@H](OC(C)=O)[C@@]2(C)O1` [forskolin], the “cAMP generation by forskolin (in words)” value with adenylyl cyclase is “robustly increased cAMP generation”.
In the case of Glucagon-like peptide-1 [GLP-1], the “affinity at the GLP-1R” value in the data set with GLP-1R [1] is given as “nanomolar to sub-nanomolar affinity”. In addition, in the data set on type 2 diabetes, the “effect on insulin secretion and hyperglycaemia in type 2 diabetes” value was “potentiates glucose-dependent insulin secretion and can normalize hyperglycaemia in type 2 diabetes”.
Turning to “GLP-1 7–37: generated from proglucagon by prohormone convertase 1/3”, in data set [2], the fasting plasma concentration is less than 10 pM and the “plasma concentration following a meal” value is on record as approximately 10 pM. In the data set on GLP-1R [3], the “relative potency at the GLP-1R” value was “essentially equipotent”.
Turning to GLP-1R (from UniProt P43220), the Kd in [4] is 1 nM.
Regarding `CC[C@H](C)[C@H](NC(=O)[C@H](Cc1ccccc1)NC(=O)[C@H](CCC(=O)O)NC(=O)[C@H](CCCCN)NC(=O)[C@H](C)NC(=O)[C@H](C)NC(=O)[C@H](CCC(N)=O)NC(=O)CNC(=O)[C@H](CCC(=O)O)NC(=O)[C@H](CC(C)C)NC(=O)[C@H](Cc1ccc(O)cc1)NC(=O)[C@H](CO)NC(=O)[C@H](CO)NC(=O)[C@@H](NC(=O)[C@H](CC(=O)O)NC(=O)[C@H](CO)NC(=O)[C@@H](NC(=O)[C@H](Cc1ccccc1)NC(=O)[C@@H](NC(=O)CNC(=O)[C@@H](N)CCC(=O)O)[C@@H](C)O)[C@@H](C)O)C(C)C)C(=O)N[C@@H](C)C(=O)N[C@@H](Cc1c[nH]c2ccccc12)C(=O)N[C@@H](CC(C)C)C(=O)N[C@H](C(=O)N[C@@H](CCCCN)C(=O)NCC(=O)N[C@@H](CCCNC(=N)N)C(N)=O)C(C)C` [GLP-1 9–36 amide, Glucagon-like peptide-1 9–36 amide], the 50% effective concentration (EC50) is 309 nM on human GLP-1R [5] (compound 2: 0 µM); 85.1 nM at human GLP-1R [5] (compound 2: 0.03 µM); 32.4 nM at human GLP-1R [5] (compound 2: 0.1 µM, ** P<0.01 versus 0 µM compound 2); 8.91 nM on human GLP-1R [5] (compound 2: 0.3 µM, *** P<0.001 versus 0 µM compound 2); 5.25 nM at human GLP-1R [5] (compound 2: 1.0 µM, *** P<0.001 versus 0 µM compound 2); 3.89 nM at human GLP-1R [5] (compound 2: 3.0 µM, *** P<0.001 versus 0 µM compound 2). The Emax on human GLP-1R [5] (read-out: Emax as % of the GLP-1 7–36 amide response, cAMP, no pretreatment, 15 min challenge) was 18%; at human GLP-1R [6] it was 23%; in data set [7] it was approximately 50%. In addition, at human GLP-1R [8], the “ERK activation in excess of the sum of the responses to the ligands alone” value is on record as 45–69%. Besides, the “peak plasma level, oral glucose tolerance test” value in data set [2] (po) is recorded as approximately 60 pM.
As for `CC(C)NCC(O)c1ccc(O)c(O)c1` (stereo not shown) [isoproterenol], the “cAMP accumulation (in words)” value in the data set on β2-adrenoceptors is given as “stimulation of cAMP accumulation”.

These data come from publication PMC3477139 (PLoS ONE, 2012).
